Experimental findings from ChEMBL document CHEMBL1671744 (Antimicrob Agents Chemother, 2010) are described below.

In brackets after ≈: the same amount, converted by molar mass. Where a SMILES comes first, the peptide text is derived from it. [ ]: non-standard residue; d: D form. The star is where a group is joined. Undecanoyl = CCCCCCCCCCC(=O)*; Nphe = O=C(O)CNCc1ccccc1; OBn = c1ccc(CO*)cc1

For series [1] the following is noted: erythrocyte.
For series [2], the system named is Staphylococcus aureus. Kind of series: Antimicrobial activity against Staphylococcus aureus. The format is functional.
Series [3] has as its system Escherichia coli. Description: Antimicrobial activity against Escherichia coli. The format is functional.
Series [4] can be described thus: in vitro.
Series [5] has as its system Aspergillus fumigatus. Description: Antimicrobial activity against Aspergillus fumigatus. The format is functional.

Usually MIC stands for the lowest concentration found to suppress growth. Read a low MIC as inhibition by little substance. `CC[C@H](C)[C@H](NC(=O)[C@H](CCCCN)NC(=O)[C@@H](NC(=O)[C@H](CCC(N)=O)NC(=O)[C@@H](N)CCCNC(=N)N)[C@@H](C)CC)C(=O)N[C@@H](Cc1c[nH]c2ccccc12)C(=O)N[C@@H](Cc1ccccc1)C(=O)N[C@@H](CCC(N)=O)C(=O)N[C@@H](CC(N)=O)C(=O)N[C@@H](CCCNC(=N)N)C(=O)N[C@@H](CCCNC(=N)N)C(=O)N[C@@H](CCSC)C(=O)N[C@@H](CCCCN)C(=O)N[C@@H](Cc1c[nH]c2ccccc12)C(=O)N[C@@H](CCCCN)C(=O)N[C@@H](CCCCN)C(=O)NCCCC[C@H](NC(=O)[C@H](CCCCN)NC(=O)[C@H](CCCCN)NC(=O)[C@H](Cc1c[nH]c2ccccc12)NC(=O)[C@H](CCCCN)NC(=O)[C@H](CCSC)NC(=O)[C@H](CCCNC(=N)N)NC(=O)[C@H](CCCNC(=N)N)NC(=O)[C@H](CC(N)=O)NC(=O)[C@H](CCC(N)=O)NC(=O)[C@H](Cc1ccccc1)NC(=O)[C@H](Cc1c[nH]c2ccccc12)NC(=O)[C@@H](NC(=O)[C@H](CCCCN)NC(=O)[C@@H](NC(=O)[C@H](CCC(N)=O)NC(=O)[C@@H](N)CCCNC(=N)N)[C@@H](C)CC)[C@@H](C)CC)C(N)=O` came in with an MHC in series [1] of 25 µM. For the same molecule, the MIC was 1 µM (≈ 4.6 µg/mL) in series [2] and 2 µM (≈ 9.21 µg/mL) in series [3].

The HC50 is the concentration that lyses half of the red blood cells. The low end stands for stronger haemolysis, the high end for weaker haemolysis. Molecule `N=C(N)NCCC[C@H](NC(=O)[C@H](Cc1c[nH]c2ccccc12)NCCCC[C@H](N[C@@H](Cc1c[nH]c2ccccc12)C(=O)N[C@@H](CCCNC(=N)N)C(=O)O)C(=O)NCCCC[C@H](NC(=O)[C@H](CCCCN[C@@H](Cc1c[nH]c2ccccc12)C(=O)N[C@@H](CCCNC(=N)N)C(=O)O)N[C@@H](Cc1c[nH]c2ccccc12)C(=O)N[C@@H](CCCNC(=N)N)C(=O)O)C(=O)NCCC(N)=O)C(=O)O` came in with an HC50 in series [4] (red blood cells) of 760 µM. The MIC in series [2] worked out at 8.7 µM (≈ 16.1 µg/mL); in series [3] it was 2.4 µM (≈ 4.43 µg/mL).

Turning to `CCCCCCCCCCCCCCCC(=O)N[C@@H](CCCCN)C(=O)N[C@@H](CCCCN)C(=O)N[C@@H](CCCCN)C(N)=O`, the HC50 in series [4] (red blood cells) was 100 µM. Also, the MIC amounted to 3.1 µM (≈ 1.98 µg/mL) in series [5] and 1.56 µM (≈ 0.998 µg/mL) in series [3].

As for `N=C(N)NCCC[C@H](NC(=O)[C@H](Cc1c[nH]c2ccccc12)NC(=O)[C@H](CCCNC(=N)N)NC(=O)[C@H](Cc1c[nH]c2ccccc12)NC(=O)[C@H](CCCNC(=N)N)NC(=O)[C@H](Cc1c[nH]c2ccccc12)NC(=O)[C@H](CCCNC(=N)N)NC(=O)[C@H](Cc1c[nH]c2ccccc12)NC(=O)[C@@H](N)CCCNC(=N)N)C(=O)N[C@@H](Cc1c[nH]c2ccccc12)C(N)=O`, in series [4] (erythrocyte), the HC50 turned out to be 76 µM. Also, the MIC in series [2] is 3.6 µM (≈ 6.22 µg/mL); in series [3], 6.2 µM (≈ 10.7 µg/mL).

`CC[C@H](C)[C@H](NC(=O)CN)C(=O)NCC(=O)N[C@@H](CCCCN)C(=O)N[C@@H](Cc1ccccc1)C(=O)N[C@@H](CC(C)C)C(=O)N[C@@H](Cc1cnc[nH]1)C(=O)N[C@@H](CO)C(=O)N[C@@H](C)C(=O)N[C@@H](CCCCN)C(=O)N[C@@H](CCCCN)C(=O)N[C@@H](Cc1c[nH]c2ccccc12)C(=O)NCC(=O)N[C@@H](CCCCN)C(=O)N[C@@H](C)C(=O)N[C@@H](Cc1ccccc1)C(=O)N[C@H](C(=O)NCC(=O)N[C@@H](CCC(=O)O)C(=O)N[C@H](C(=O)N[C@@H](CCSC)C(=O)N[C@@H](CC(N)=O)C(=O)N[C@@H](CO)C(N)=O)[C@@H](C)CC)C(C)C` (H-GIGKFLHSAKKWGKAFVGEIMNS-NH2) displayed an MIC in series [5] above 50 µM.

In series [4] (erythrocyte), `N=C(N)NCCC[C@H](NC(=O)[C@H](Cc1c[nH]c2ccccc12)NC(=O)[C@H](CCCNC(=N)N)NC(=O)[C@H](Cc1c[nH]c2ccccc12)NC(=O)[C@@H](N)CCCNC(=N)N)C(=O)N[C@@H](Cc1c[nH]c2ccccc12)C(N)=O` (H-RWRWRW-NH2) gave an HC50 of 210 µM. Also, the MIC in series [2] is 8 µM (≈ 8.35 µg/mL); in series [3], 16 µM (≈ 16.7 µg/mL).

Molecule `N=C(N)NCCC[C@H](NC(=O)[C@H](Cc1c[nH]c2ccccc12)NC(=O)[C@H](CCCNC(=N)N)NC(=O)[C@H](Cc1c[nH]c2ccccc12)NC(=O)[C@H](CCCNC(=N)N)NC(=O)[C@H](Cc1c[nH]c2ccccc12)NC(=O)[C@@H](N)CCCNC(=N)N)C(=O)N[C@@H](Cc1c[nH]c2ccccc12)C(N)=O` (H-RWRWRWRW-NH2) displayed an HC50 in series [4] (erythrocyte) of 100 µM. In addition, the minimum inhibitory concentration (MIC) in series [2] amounted to 5.1 µM (≈ 7.07 µg/mL); in series [3], 9.6 µM (≈ 13.3 µg/mL).

For `NC(=O)[C@H](Cc1c[nH]c2ccccc12)NC(=O)[C@H](CCCN=C(N)N)NC(=O)[C@@H](N)Cc1c[nH]c2ccccc12` (H-Trp-Arg-Trp-NH2), the minimal inhibitory concentration (MIC) in series [2] was 218 µM (≈ 119 µg/mL); in series [3], above 436 µM.

As for `NC(N)=NCCC[C@H](NC(=O)[C@@H](N)Cc1c[nH]c2ccccc12)C(=O)N[C@@H](Cc1c[nH]c2ccccc12)C(=O)OCc1ccccc1` (H-Trp-Arg-Trp-OBn), the results for the minimal inhibitory concentration (MIC) in series [2] and in series [3] were 9 µM (≈ 5.73 µg/mL) and 140 µM (≈ 89.1 µg/mL), respectively.

In series [5], `CCCCCCCCCCC(=O)NCC(=O)N[C@H](C(=O)NCC(=O)N[C@@H](CCCCN)C(=O)N[C@@H](Cc1ccccc1)C(=O)N[C@@H](CC(C)C)C(=O)N[C@@H](Cc1cnc[nH]1)C(=O)N[C@@H](CO)C(=O)N[C@@H](C)C(=O)N[C@@H](CCCCN)C(=O)N[C@@H](CCCCN)C(=O)N[C@@H](Cc1c[nH]c2ccccc12)C(=O)NCC(=O)N[C@@H](CCCCN)C(=O)N[C@@H](C)C(=O)N[C@@H](Cc1ccccc1)C(=O)N[C@H](C(=O)NCC(=O)N[C@@H](CCC(=O)O)C(=O)N[C@H](C(=O)N[C@@H](CCSC)C(=O)N[C@@H](CC(N)=O)C(=O)N[C@@H](CO)C(N)=O)[C@@H](C)CC)C(C)C)[C@@H](C)CC` (Undecanoyl-GIGKFLHSAKKWGKAFVGEIMNS-NH2) gave an MIC of 6.25 µM (≈ 16.7 µg/mL).

In series [1], `CC[C@H](C)[C@H](NC(=O)CN)C(=O)NCC(=O)N[C@@H](C)C(=O)N[C@H](C(=O)N(CC(=O)N[C@@H](CCCCN)C(=O)N[C@H](C(=O)N[C@@H](CC(C)C)C(=O)N[C@H](C(=O)N[C@H](C(=O)NCC(=O)N(CC(=O)N1CCC[C@H]1C(=O)N[C@@H](C)C(=O)N[C@@H](CC(C)C)C(=O)N[C@H](C(=O)N[C@@H](CO)C(=O)N[C@@H](Cc1c[nH]c2ccccc12)C(=O)N(CC(=O)N[C@@H](CCCCN)C(=O)N[C@@H](CCCNC(=N)N)C(=O)N[C@@H](CCCCN)C(=O)N[C@@H](CCCNC(=N)N)C(=O)N[C@@H](CCC(N)=O)C(=O)N[C@@H](CCC(N)=O)C(=O)O)Cc1ccccc1)[C@@H](C)CC)Cc1ccccc1)[C@@H](C)O)[C@@H](C)O)C(C)C)Cc1ccccc1)C(C)C` [MELITTIN PEPTOID F] (H-GIGAV[Nphe]KVLTTG[Nphe]PALISW[Nphe]KRKRQQ-OH) yielded an MHC above 100 µM. Besides, the MIC came to 2 µM (≈ 5.9 µg/mL) in series [2] and 4 µM (≈ 11.8 µg/mL) in series [3].

Molecule `CC[C@H](C)[C@H](NC(=O)[C@H](CCCCN)NC(=O)[C@@H](NC(=O)[C@H](CCC(N)=O)NC(=O)[C@@H](N)CCCNC(=N)N)[C@@H](C)CC)C(=O)N[C@@H](Cc1c[nH]c2ccccc12)C(=O)N[C@@H](Cc1ccccc1)C(=O)N[C@@H](CCC(N)=O)C(=O)N[C@@H](CC(N)=O)C(=O)N[C@@H](CCCNC(=N)N)C(=O)N[C@@H](CCCNC(=N)N)C(=O)N[C@@H](CCSC)C(=O)N[C@@H](CCCCN)C(=O)N[C@@H](Cc1c[nH]c2ccccc12)C(=O)N[C@@H](CCCCN)C(=O)N[C@@H](CCCCN)C(N)=O` [PENETRATIN] showed an MHC in series [1] above 200 µM. For the same molecule, the MIC is 1 µM (≈ 2.25 µg/mL) in series [2] and 2 µM (≈ 4.49 µg/mL) in series [3].
